Experimental findings from patent US20110053916A1 (Vertex Pharmaceuticals Incorporated, priority 2009, published 2011) are described below.

The experiment addresses T1, PknB (Mycobacterium tuberculosis, UniProt P9WI81).
T1 construct: made in house
Description: biochemical. More on the design: species or system M. tuberculosis.

The mark [1] stands for this setting: 3 nM PknB, 6 uM GarA, 3 μM ATP, 30 min, competitive tight-binding fit, several symbols in a cell = repeat determinations, read-out: Ki Values.
[2] abbreviates: 3 nM PknB, 6 uM GarA, 3 μM ATP, 30 min, competitive tight-binding fit, several symbols in a cell = repeat determinations.

The structures appear in SMILES notation. Structures can show the parent of a compound that is named as a salt. Where two headings read alike, the source gives them in different places. Some results are limits rather than exact numbers.

T1 sequence (P9WI81 whole entry): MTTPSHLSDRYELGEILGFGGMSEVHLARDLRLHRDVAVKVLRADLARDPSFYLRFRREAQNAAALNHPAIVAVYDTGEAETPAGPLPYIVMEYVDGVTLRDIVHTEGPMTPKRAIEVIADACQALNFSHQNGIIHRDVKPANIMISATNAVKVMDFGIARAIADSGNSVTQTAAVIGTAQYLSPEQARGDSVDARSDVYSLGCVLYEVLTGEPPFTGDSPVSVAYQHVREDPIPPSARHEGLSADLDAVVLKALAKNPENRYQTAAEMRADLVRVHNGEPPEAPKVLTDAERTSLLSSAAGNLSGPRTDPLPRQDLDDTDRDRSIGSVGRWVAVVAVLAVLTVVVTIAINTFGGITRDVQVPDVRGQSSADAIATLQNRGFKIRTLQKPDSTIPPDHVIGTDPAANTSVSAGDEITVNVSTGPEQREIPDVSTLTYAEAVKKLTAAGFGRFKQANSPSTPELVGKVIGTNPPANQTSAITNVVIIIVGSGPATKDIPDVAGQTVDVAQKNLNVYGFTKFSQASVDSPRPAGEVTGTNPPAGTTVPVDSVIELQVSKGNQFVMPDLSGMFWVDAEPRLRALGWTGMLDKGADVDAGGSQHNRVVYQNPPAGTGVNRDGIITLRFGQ

Consider `Cc1cnc(-c2ccc(S(N)(=O)=O)s2)nc1Nc1cc(C2CC2)n(C)n1` [Compound 150, 5-[4-[(5-cyclopropyl-1-methyl-pyrazol-3-yl)amino]-5-methyl-pyrimidin-2-yl]thiophene-2-sulfonamide], for which the Ki under setting [1] was over 4000 nM.

In the case of `C#Cc1cnc(-c2ccc(C(=O)OC)s2)nc1Nc1cc(C2CC2)[nH]n1` [Compound 151, Methyl 5-(4-(5-cyclopropyl-1H-pyrazol-3-ylamino)-5-ethynylpyrimidin-2-yl)thiophene-2-carboxylate hydrochloride], the “Ki Values” is listed as “A**, A*”.

As to `O=S(=O)(NC1CCOC1)c1ccc(-c2ncc(Cl)c(Nc3cc(C4CC4)[nH]n3)n2)s1` (centres unmarked) [Compound 152, 5-[5-chloro-4-[(5-cyclopropyl-1H-pyrazol-3-yl)amino]-pyrimidin-2-yl]-N-tetrahydrofuran-3-yl-thiophene-2-sulfonamide], the inhibitory constant (Ki) under setting [1] lay in the range of 10 to 50 nM.

`C#Cc1cnc(-c2ccc(S(C)(=O)=O)cc2)nc1Nc1cc(C2CC2)[nH]n1` [Compound 153, N-(5-Cyclopropyl-1H-pyrazol-3-yl)-5-ethynyl-2-(4-(methylsulfonyl)phenyl)pyrimidin-4-amine]: the Ki under setting [1] lay within 10 to 50 nM.

Consider `COC(=O)c1ccc(-c2ncc(Cl)c(Nc3cc(C4CC4)n[nH]3)n2)s1` [Compound 154, Methyl5-(5-chloro-4-(3-cyclopropyl-1H-pyrazol-5-ylamino)pyrimidin-2-yl)thiophene-2-carboxylate hydrochloride], for which the inhibition constant (Ki) lay within 10 to 50 nM.

Take `NS(=O)(=O)c1ccccc1-c1ncc(Cl)c(Nc2cc(C3CC3)[nH]n2)n1` [Compound 155, 2-[5-chloro-4-[(5-cyclopropyl-1H-pyrazol-3-yl)amino]-pyrimidin-2-yl]benzenesulfonamide]: the inhibitory constant (Ki) under setting [1] is over 4000 nM.

In the case of `O=C(O)c1ccc(-c2ncc(Cl)c(Nc3cc(C4CC4)n[nH]3)n2)s1` [Compound 156, 5-(5-chloro-4-(3-cyclopropyl-1H-pyrazol-5-ylamino)pyrimidin-2-yl)thiophene-2-carboxylic acid], the Ki under setting [1] lay within 50 to 100 nM.

On to `C#Cc1cnc(-c2ccc(C#N)s2)nc1Nc1cc(C2CC2)[nH]n1` [Compound 157, 5-(4-(5-Cyclopropyl-1H-pyrazol-3-ylamino)-5-ethynylpyrimidin-2-yl)thiophene-2-carbonitrile], for which the inhibition constant (Ki) under setting [1] lay in the range of 1 to 10 nM.

For `O=S(=O)(NCC(F)(F)F)c1ccc(-c2ncc(Cl)c(Nc3cc(C4CC4)[nH]n3)n2)s1` [Compound 158, 5-[5-chloro-4-[(5-cyclopropyl-1H-pyrazol-3-yl)amino]-pyrimidin-2-yl]-N-(2,2,2-trifluoroethyl)thiophene-2-sulfonamide], under setting [1], the Ki lay within 10 to 50 nM.

Regarding `COc1ccc(-c2ncc(Cl)c(Nc3cc(C4CC4)[nH]n3)n2)cc1S(N)(=O)=O` [Compound 161, 5-[5-chloro-4-[(5-cyclopropyl-1H-pyrazol-3-yl)amino]-pyrimidin-2-yl]-2-methoxy-benzenesulfonamide], the Ki under setting [1] lay in the range of 50 to 100 nM.

For the molecule `CC(C)(C)NS(=O)(=O)c1ccc(-c2ncc(C(F)(F)F)c(Nc3cc(C4CC4)n[nH]3)n2)s1` [Compound 162, 5-[4-[(5-cyclopropyl-2H-pyrazol-3-yl)amino]-5-(trifluoromethyl)pyrimidin-2-yl]-N-tert-butyl-thiophene-2-sulfonamide], the inhibitory constant (Ki) under setting [1] lay within 500 to 1000 nM.

For the molecule `CC(C)(C)NS(=O)(=O)c1ccc(-c2ncc(CO)c(Nc3cc(C4CC4)[nH]n3)n2)s1` [Compound 163, N-tert-butyl-5-(4-(5-cyclopropyl-1H-pyrazol-3-ylamino)-5-(hydroxymethyl)pyrimidin-2-yl)thiophene-2-sulfonamide], the Ki under setting [1] fell in the range of 100 to 500 nM.

As to `Clc1cnc(-c2ccco2)nc1Nc1cc(C2CC2)[nH]n1` [Compound 164, 5-chloro-N-(5-cyclopropyl-1H-pyrazol-3-yl)-2-(furan-2-yl)pyrimidin-4-amine], the Ki under setting [1] was in the range of 100 to 500 nM.

On to `CC(=O)c1ccc(-c2ncc(Br)c(Nc3cc(C4CC4)[nH]n3)n2)s1` [Compound 165, 1-[5-[5-bromo-4-[(5-cyclopropyl-1H-pyrazol-3-yl)amino]-pyrimidin-2-yl]-2-thienyl]ethanone], for which, under setting [2], the “Ki Values” is recorded as “A**, A*”.

For `CC(=O)NCCNS(=O)(=O)c1ccc(-c2ncc(Br)c(Nc3cc(C4CC4)[nH]n3)n2)s1` [Compound 166, N-(2-(5-(5-bromo-4-(5-cyclopropyl-1H-pyrazol-3-ylamino)pyrimidin-2-yl)thiophene-2-sulfonamido)ethyl)acetamide], under setting [1], the Ki lay within 10 to 50 nM.

Take `C#Cc1cnc(-c2ccc(CNC(=O)OC(C)(C)C)s2)nc1Nc1cc(C2CC2)[nH]n1` [Compound 168, Tert-butyl (5-(4-(5-cyclopropyl-1H-pyrazol-3-ylamino)-5-ethynylpyrimidin-2-yl)thiophen-2-yl)methylcarbamate]: under setting [2], the “Ki Values” is given as “B**, B**, B”.

Regarding `C#Cc1cnc(N2CC[C@H](NC(=O)OC(C)(C)C)C2)nc1Nc1cc(C2CC2)n[nH]1` [Compound 169, tert-butyl [[1-[4-[(5-cyclopropyl-2H-pyrazol-3-yl)amino]-5-ethynyl-pyrimidin-2-yl]pyrrolidin-3-yl]amino]formate], under setting [2], the “Ki Values” is on record as “C, D”.

As for `C#Cc1cnc(N2CCCCC2)nc1Nc1cc(C2CC2)n[nH]1` [Compound 172, N-(5-Cyclopropyl-1H-pyrazol-3-yl)-5-ethynyl-2-(piperidin-1-yl)pyrimidin-4-amine], under setting [2], the “Ki Values” is on record as “A, B**, B**”.

On to `C#Cc1cnc(N2CCCNCC2)nc1Nc1cc(C2CC2)n[nH]1` [Compound 174, N-(5-cyclopropyl-2H-pyrazol-3-yl)-2-(1,4-diazepan-1-yl)-5-ethynyl-pyrimidin-4-amine], for which the inhibition constant Ki under setting [1] was in the range of 2000 to 4000 nM.

As to `C#Cc1cnc(N2CCNCC2)nc1Nc1cc(C2CC2)n[nH]1` [Compound 175], under setting [1], the inhibition constant (Ki) was in the range of 2000 to 4000 nM.

On to `N#Cc1ccc(-c2ncc(Br)c(Nc3cc(C4CC4)[nH]n3)n2)s1` [Compound 176, 5-[5-bromo-4-[(5-cyclopropyl-1H-pyrazol-3-yl)amino]-pyrimidin-2-yl]thiophene-2-carbonitrile], for which the inhibition constant Ki under setting [1] lay in the range of 1 to 10 nM.

Take `C#Cc1cnc(N2CCN(C)CC2)nc1Nc1cc(C2CC2)[nH]n1` [Compound 177, N-(5-cyclopropyl-1H-pyrazol-3-yl)-5-ethynyl-2-(4-methylpiperazin-1-yl)-pyrimidin-4-amine]: the inhibitory constant (Ki) under setting [1] lay within 2000 to 4000 nM.

As to `C#Cc1cnc(N2CCCC2)nc1Nc1cc(C2CC2)[nH]n1` [Compound 178, N-(5-cyclopropyl-1H-pyrazol-3-yl)-5-ethynyl-2-pyrrolidin-1-yl-pyrimidin-4-amine], the Ki under setting [1] was 100 to 500 nM.

Consider `NS(=O)(=O)c1ccc(-c2ncc(C(=O)O)c(Nc3cc(C4CC4)[nH]n3)n2)s1` [Compound 179, 4-(5-cyclopropyl-1H-pyrazol-3-ylamino)-2-(5-sulfamoylthiophen-2-yl)pyrimidine-5-carboxylic acid], for which, under setting [1], the Ki lay within 500 to 1000 nM.

As for `C#Cc1cnc(-c2ccc(S(=O)(=O)NCCNC(C)=O)s2)nc1Nc1cc(C2CC2)[nH]n1` [Compound 181, N-[2-[[5-[4-[(5-cyclopropyl-1H-pyrazol-3-yl)amino]-5-ethynyl-pyrimidin-2-yl]-2-thienyl]sulfonylamino]ethyl]acetamide], the Ki under setting [1] was 10 to 50 nM.

Regarding `Clc1cnc(-c2ccccn2)nc1Nc1cc(C2CC2)[nH]n1` [Compound 182, 5-chloro-N-(5-cyclopropyl-1H-pyrazol-3-yl)-2-(pyridin-2-yl)pyrimidin-4-amine], the Ki under setting [1] was 1000 to 2000 nM.

`C#Cc1cnc(-c2ccc(S(=O)(=O)NCCNC(=O)C(C)(C)C)s2)nc1Nc1cc(C2CC2)n[nH]1` [Compound 183, N-(2-(5-(4-(5-cyclopropyl-1H-pyrazol-3-ylamino)-5-ethynylpyrimidin-2-yl)thiophene-2-sulfonamido)ethyl)pivalamide]: the Ki under setting [1] lay within 50 to 100 nM.

Regarding `C#Cc1cnc(N2CC[C@@H](N)C2)nc1Nc1cc(C2CC2)n[nH]1` [Compound 184, 2-(3-aminopyrrolidin-1-yl)-N-(5-cyclopropyl-2H-pyrazol-3-yl)-5-ethynyl-pyrimidin-4-amine], the Ki under setting [1] is over 4000 nM.

Take `C#Cc1cnc(N2CCN(C(C)=O)CC2)nc1Nc1cc(C2CC2)n[nH]1` [Compound 185, 1-[4-[4-[(5-cyclopropyl-2H-pyrazol-3-yl)amino]-5-ethynyl-pyrimidin-2-yl]piperazin-1-yl]ethanone]: the Ki under setting [1] lay within 500 to 1000 nM.

Consider `NS(=O)(=O)c1ccc(-c2ncc(Br)c(Nc3cc(C4CC4)[nH]n3)n2)s1` [Compound 186, 5-[5-bromo-4-[(5-cyclopropyl-1H-pyrazol-3-yl)amino]-pyrimidin-2-yl]thiophene-2-sulfonamide], for which the Ki under setting [1] lay in the range of 1 to 10 nM.

As to `C#Cc1cnc(N2CC[C@H](N)C2)nc1Nc1cc(C2CC2)n[nH]1` [Compound 187, 2-(3-aminopyrrolidin-1-yl)-N-(5-cyclopropyl-2H-pyrazol-3-yl)-5-ethynyl-pyrimidin-4-amine], the inhibition constant Ki under setting [1] is over 4000 nM.

For `CCOC(=O)C(=O)c1ccc(-c2ncc(Cl)c(Nc3cc(C4CC4)[nH]n3)n2)s1` [Compound 189, ethyl 2-(5-(5-chloro-4-(5-cyclopropyl-1H-pyrazol-3-ylamino)pyrimidin-2-yl)thiophen-2-yl)-2-oxoacetate], the Ki under setting [1] lay within 50 to 100 nM.

As to `O=C(O)C(=O)c1ccc(-c2ncc(Cl)c(Nc3cc(C4CC4)[nH]n3)n2)s1` [Compound 190, 2-(5-(5-chloro-4-(5-cyclopropyl-1H-pyrazol-3-ylamino)pyrimidin-2-yl)thiophen-2-yl)-2-oxoacetic acid], under setting [1], the Ki was in the range of 10 to 50 nM.

As for `C#Cc1cnc(N2CC[C@@H](NC(C)=O)C2)nc1Nc1cc(C2CC2)n[nH]1` [Compound 193, N-[1-[4-[(5-cyclopropyl-2H-pyrazol-3-yl)amino]-5-ethynyl-pyrimidin-2-yl]pyrrolidin-3-yl]acetamide], the “Ki Values” under setting [2] is “B, C”.

As to `CC(=O)NS(=O)(=O)c1ccc(-c2ncc(Cl)c(Nc3cc(C4CC4)[nH]n3)n2)s1` [Compound 194, N-[[5-[5-chloro-4-[(5-cyclopropyl-1H-pyrazol-3-yl)amino]-pyrimidin-2-yl]-2-thienyl]sulfonyl]acetamide], the “Ki Values” under setting [2] is listed as “A, B**”.
